Results as given in article PMC2662387 (Journal of medicinal chemistry, 2008).

What was measured:
D3 receptor [1] = molecular target: T1, D3 receptor (Rattus norvegicus, UniProt P19020); assay type: in vivo; settings: rats
D2 receptor = D2 receptor (Rattus norvegicus, UniProt P61169); assay: Hypothermia in rats; assay type: in vivo; settings: for Induction of hypothermia: compound alone
Aqueous solubility = assay type: physicochemical
D3 receptor [2] = molecular target: T1, D3 receptor; assay: D3 receptor binding assay, [3H]PD128907, rat brain; settings: for Fold less potent than 6 at the D3 receptor: relative to compound 6

T1 sequence (P19020 whole entry): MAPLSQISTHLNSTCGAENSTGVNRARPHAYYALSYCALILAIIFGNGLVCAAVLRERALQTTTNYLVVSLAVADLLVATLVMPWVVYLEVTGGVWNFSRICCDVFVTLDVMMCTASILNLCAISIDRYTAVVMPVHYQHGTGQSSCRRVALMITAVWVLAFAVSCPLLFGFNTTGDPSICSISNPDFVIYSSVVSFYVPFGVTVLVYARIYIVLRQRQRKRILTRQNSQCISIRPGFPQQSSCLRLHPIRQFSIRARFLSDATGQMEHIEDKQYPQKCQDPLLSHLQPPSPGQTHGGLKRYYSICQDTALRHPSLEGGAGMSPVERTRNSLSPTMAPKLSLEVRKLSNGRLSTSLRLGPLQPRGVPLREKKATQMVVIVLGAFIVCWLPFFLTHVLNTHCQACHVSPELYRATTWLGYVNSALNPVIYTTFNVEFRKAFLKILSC
Sequence of D2 receptor (P61169 whole entry): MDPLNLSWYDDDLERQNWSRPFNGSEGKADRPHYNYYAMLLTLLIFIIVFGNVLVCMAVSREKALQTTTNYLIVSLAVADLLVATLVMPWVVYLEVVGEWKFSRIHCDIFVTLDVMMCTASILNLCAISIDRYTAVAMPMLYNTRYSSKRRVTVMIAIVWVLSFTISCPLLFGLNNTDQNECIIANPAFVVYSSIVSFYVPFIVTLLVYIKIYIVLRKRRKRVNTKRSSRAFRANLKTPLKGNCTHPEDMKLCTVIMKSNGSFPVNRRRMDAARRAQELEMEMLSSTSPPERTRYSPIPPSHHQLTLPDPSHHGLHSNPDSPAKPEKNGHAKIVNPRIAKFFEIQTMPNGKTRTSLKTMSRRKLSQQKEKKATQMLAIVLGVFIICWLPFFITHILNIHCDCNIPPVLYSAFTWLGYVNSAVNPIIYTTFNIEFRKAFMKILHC

In the case of CCCN[C@H]1CCc2nc(N)sc2C1 [Compound 1, pramipexole, reference compound], the Induction of yawning (D3 receptor [1]; compound alone, dose-response) is reported as “increases in yawning were observed over low doses (0.01 to 0.1 mg/kg)”, the “In vivo functional profile at D3 and D2 receptors” value (D3 receptor [1]; concluded from yawning and hypothermia assays) is reported as “preferential D3 agonist in vivo and a D2 agonist at higher doses” and the Induction of hypothermia (D2 receptor) is reported as “induction of hypothermia occurring at higher doses”.

For CCCN(CC[C@H]1CC[C@H](NC(=O)/C=C/c2ccccc2)CC1)[C@H]1CCc2nc(N)sc2C1 [Compound 12], the “Aqueous solubility (in words)” value (Aqueous solubility) was “good aqueous solubility”, the Induction of hypothermia (D2 receptor) was “failed to induce changes in body temperature over the initial hour of observation” and the “Effect on compound 1-induced hypothermia” value (D2 receptor; pretreatment with 12) was “failed to alter the induction of hypothermia by 1”.

With CCCN(CC[C@H]1CC[C@H](NC(=O)c2ccc3ccccc3c2)CC1)[C@H]1CCc2nc(N)sc2C1.Cl.Cl [Compound 6] the “Aqueous solubility (in words)” value (Aqueous solubility) was “good aqueous solubility” and the Induction of hypothermia (D2 receptor) was “failed to induce changes in body temperature over the initial hour of observation”.

With Nc1nc2c(s1)C[C@@H](NCC[C@H]1CC[C@H](NC(=O)c3ccc4ccccc4c3)CC1)CC2 [Compound 10] the “Fold less potent than 6 at the D3 receptor” value (D3 receptor [2]) was 19 times.

For CCCN(CCCCNC(=O)c1ccc2ccccc2c1)[C@H]1CCc2nc(N)sc2C1 [Compound 5], the “Aqueous solubility (in words)” value (Aqueous solubility) was “good aqueous solubility” and the Induction of hypothermia (D2 receptor) was “hypothermia was induced by 5 at higher doses”.

For CC(C)CCN(CC[C@H]1CC[C@H](NC(=O)c2ccc3ccccc3c2)CC1)[C@H]1CCc2nc(N)sc2C1 [Compound 8], the “Fold less potent than 6 at the D3 receptor” value (D3 receptor [2]) was 5 times.

For COc1ccc2c(c1)CC[C@@H]1CN(CC[C@H]3CC[C@H](NC(=O)c4ccc5ccccc5c4)CC3)CCN21 [Compound 4, reference compound], the “Aqueous solubility (in words)” value (Aqueous solubility) was “poor aqueous solubility”, the “Selectivity D1-like/D3” value (D3 receptor [2]; ratio of Ki values) was >5000 fold and the “Selectivity D2-like/D3” value (D3 receptor [2]; ratio of Ki values, high affinity D2 component where 2-site fit) was >1000 fold.
